Test results as given in US8841121B2, “Vector, vector combinations, methods and kit thereof” (Jawaharlal Nehru Centre for Advanced Scientific Research, priority 2010, dated 2014).
Entries after “also recorded” stand apart in the source; their conditions may differ.

Experiments:
HEK 293 cells = experiment: Cytotoxicity / cell death by light microscopy in transfected HEK 293 cells; format: cell-based; conditions: for Cytotoxicity / cell death (light microscopy): HEK 293 cells, increasing concentrations of the inhibitor
Method: Tat up-regulates GFP expression (middle panels). […] Thus, a cytotoxic molecule down-regulates GFP without being a Tat inhibitor.
293 cells are transiently transfected with pPRIME-LTR-GFP: anti-RFP miRNA (p604.344 and p604.620), CMV-RFP and EF-1α-Tat (YU-2) vectors. Cells are treated with different concentrations of the SMI 24 h after transfection. GFP and RFP expression is recorded 24 h after vector transfection. LM, Light microscopy.
(§1) DRB (5, 6-dichloro-1-beta-D-ribofuranosylbenzimidazole) a small molecule inhibitor, blocks an essential cellular enzyme CDK9, a kinase, critical for general transcription of many genes and therefore is cytotoxic. […] The Tat inhibition potential as well as cytotoxicity of DRB at 3 different concentrations is tested in HEK 293 cells using plasmid combinations as defined in Table-2. Images of the cells are captured using light microscopy, GFP or RFP filters at 36 h. […] Thus, the GFP-based assay identifies false hits, but not the instant RFP-based assay.

Tat [1] = target: T1, Tat (Human immunodeficiency virus type 1 group M subtype B, UniProt P35965); experiment: Tat-inducible GFP / anti-RFP shRNA reporter assay, transient transfection in HEK293 cells; format: cell-based, HIV-1; parameters: The full-length Tat cDNA from molecular clone YU-2 (subtype-B) is made from cellular RNA of 293 cells; expressed in transfected cells; host or cells: HEK293 (293) cells, transient transfection; pcDNA3.1 CMV-Tat (YU-2) or EF-1α-Tat (YU-2) vector
Method: (§2) Vector DNA Transfection: All the proof-of-the-concept assays embedded in this document are performed using the transient transfection method formats. Most of the experiments are done using host cells such as HEK293 cells and preferably the standard calcium transfection protocol. Further, few experiments are also performed using HeLa cells. A commercial lipid formulation is used for this and is used following the suppliers instructions.
siRNA Transfection: Anti-Tat siRNA molecules are introduced into cells using a commercial lipid-nanoparticle formulation as per the instructions from the supplier.
Adding Tat Inhibitors to the Cell and Screening to Identify Anti-viral/Tat Molecules: The assays are performed using the following format although several variations are introduced depending on the need. • a) Cell Plating: Cells are plated in 96-well culture plates the previous evening and on the morning of the experiment, they are at 30-40% occupancy and in the logarithmic growth phase. • b) DNA Vector Transfection: A combination of 4 vectors is used in most of the assays. The total DNA concentration ranged from 1 to 2 μg per a 24-well plate or 100-200 ng per 96-well plate depending on the context. • 1. Anti-RFP siRNA vector (pPRIME-LTR-GFP: anti-RFP miRNA (p604.344):100-600 ng • 2. Anti-RFP siRNA vector (pPRIME-LTR-GFP: anti-RFP miRNA (p604.620): 100-600 ng • 3. CMV-Tat (YU-2) vector:50-200 ng • 4. CMV-RFP vector (pCMV-RFP-IRES-Puro) (FIGS. 21):50-200 ng
Cells are monitored for GFP or RFP expression after 24 h after subjected to an anti-Tat compound.
Anti-Tat Compound Treatment: A small molecule inhibitor (at concentrations mentioned in individual experiments above) or anti-Tat siRNA (20-100 ng per well) are used. The anti-Tat agent is used immediately after plasmid DNA transfection or after 12-24 h. Cells are removed from the wells by trypsinization and made into single cell suspension in phosphate buffered saline. The mean fluorescence intensity of the cells was determined using flow cytometry. Alternatively, cells were removed from the well using trypsinization and suspended in PBS. The intensity of the fluorescence was quantitatively determined using a standard fluorimeter. Fluorescent protein gene expression is measured at 24, 36, 48 and 72 h from vector transfection, at one time point or multiple time points.
as §1

Tat [2] = target: T1, Tat; experiment: Tat-inducible GFP / anti-RFP shRNA reporter assay, transient transfection in HeLa cells; format: cell-based, HIV-1; parameters: The full-length Tat cDNA from molecular clone YU-2 (subtype-B) is made from cellular RNA of 293 cells; expressed in transfected cells; pcDNA3.1 CMV-Tat (YU-2) or EF-1α-Tat (YU-2) vector; conditions: 25 μM, 24 h
Method: HeLa cells are transiently transfected with pPRIME-LTR-GFP: anti-RFP miRNA (p604.344 and p604.620), CMV-RFP and EF-1α-Tat (YU-2) vectors. Cells are treated with 25 μM DRB. GFP and RFP expression is recorded 24 h after vector transfection.
as §2
The assay also identifies SMI which inhibit cellular factors needed for Tat. 5,6-Dichlorobenzimidazole Riboside (DRB) is a potent inhibitor of CDK9 which is a cellular factor necessary for Tat function. […] Thus the assay of the present disclosure also identify such SMI that have an indirect effect on Tat function.

Tat [3] = target: T2, Tat (Human immunodeficiency virus type 1 group M subtype B, UniProt P04608); conditions: HeLa cells, increasing concentration; cited from earlier work
T2 construct: host or cells: HeLa cells

[4] = HEK 293 cells, with Tat, increasing/different concentrations of the inhibitor

T1 sequence (P35965 whole entry): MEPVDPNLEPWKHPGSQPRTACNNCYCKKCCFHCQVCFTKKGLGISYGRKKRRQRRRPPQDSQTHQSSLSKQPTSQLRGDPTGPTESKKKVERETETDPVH
T2 sequence (P04608 whole entry): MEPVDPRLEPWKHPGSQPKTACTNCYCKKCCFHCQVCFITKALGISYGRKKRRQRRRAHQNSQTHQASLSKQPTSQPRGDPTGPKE

Structure (SMILES) | Cytotoxicity / cell death (light microscopy) (HEK 293 cells) | GFP expression (Tat [1]; [4]) | RFP expression (Tat [1]; [4]) | further results
CC[C@H](CO)Nc1nc(NCc2ccccc2)c2ncn(C(C)C)c2n1 [Roscovitine] |  |  |  | Cytotoxicity (HEK 293 cells; 293 cells, 3 μM): cytotoxicity; GFP expression (Tat [1]; 293 cells, 3 μM, 48 h): reduced expression of GFP; RFP expression (Tat [1]; 293 cells, 3 μM, 48 h): not in enhanced expression of RFP
OC[C@H]1O[C@@H](n2cnc3cc(Cl)c(Cl)cc32)[C@H](O)[C@@H]1O [DRB, 5,6-dichloro-1-beta-D-ribofuranosylbenzimidazole] | enhanced cell death with increasing concentrations; also recorded: increasing levels of cytotoxicity; also recorded: significant levels of cell death | GFP expression also is reduced; also recorded: progressive reduction in GFP expression; also recorded: progressive down-regulation of GFP expression | should have been up-regulated, which is not the case here; also recorded: no concomitant up-regulation of RFP expression | GFP expression (Tat [2]): relative down regulation of GFP; RFP expression (Tat [2]): relieves Tat-mediated RFP suppression; also recorded: relieves RFP gene expression
O=C1CN=C(c2ccc[nH]2)c2cc(Cl)ccc2N1 [R05-3335] |  |  |  | GFP expression (Tat [3]): GFP expression is down-regulated
COc1ccc(C(=O)C2=C3OC(C)(C)[C@@H](CC=C(C)C)C[C@@]34C[C@@H](CC=C(C)C)C(C)(C)[C@@](CC=C(C)C)(C2=O)C4=O)cc1O [LTK14] | progressively increased cell death | down regulation of GFP | not enhanced RFP expression | 
COc1cccc2c1C(=O)c1c(O)c3c(c(O)c1C2=O)C[C@@](O)(C(C)=O)C[C@@H]3O[C@H]1C[C@H](NCc2ccc(CN[C@H]3C[C@H](O[C@H]4C[C@](O)(C(C)=O)Cc5c(O)c6c(c(O)c54)C(=O)c4c(OC)cccc4C6=O)O[C@@H](C)[C@H]3O)cc2)[C@H](O)[C@H](C)O1 [WP631] | toxic to the cell at higher concentrations; also recorded: causes apoptosis at higher concentrations | marginally reduced GFP expression; also recorded: marginal down regulation of GFP | small relief in RFP suppression is evident, this is not significant; also recorded: insignificant levels of up-regulation of RFP; also recorded: partially relieves RFP gene expression | Cytotoxicity (cell density under light microscopy) (HEK 293 cells; 293 cells, WP631 treatment (100 nM)): Low level cytotoxicity; RFP expression (Tat [1]; 293 cells, 100 nM): partially relieves Tat-mediated inhibition of RFP
CN1CC[C@H](c2c(O)cc(O)c3c(=O)cc(-c4ccccc4Cl)oc23)[C@H](O)C1 [Flavipiridol] | progressive increase in cytotoxicity |  |  | 
